Here are results for three molecules from patent US7662988B2, “Ester compound and its use” (Sumitomo Chemical Company, Limited, priority 2006, dated 2010).

In experiment [1] the test system is Adult houseflies. Put plainly: Housefly KT90 test, 0.00625% oil solution spray in cubic chamber. The class given is in vivo. The note with it: 0.7 ml of 0.00625% oil solution sprayed in 70 cm cubic chamber, counted up to 10 minutes after spraying. The protocol:
A solution of 0.00625 part of the present compound (A) in 10 parts of dichloromethane was mixed with 89.99375 parts of deodorized kerosene to obtain a 0.00625% oil solution.
Adult houseflies (5 males and 5 females) were left in a cubic chamber (70 cm at each side). Into the chamber, 0.7 ml of 0.00625% oil solution of the present compound (A) prepared above was sprayed into the chamber with a spray gun at a pressure of 8.8×10^4 Pa from a small window on the side of the chamber. Then, up to 10 minutes after spraying, the number of the knocked-down insects was counted with time (repeated twice). The time required for knocking down 90% of the tested insects (KT90) was calculated from the results.
The same tests were carried out except for using the comparative compound 1 and 4-methoxymethyl-2,3,5,6-tetrafluorobenzyl (1R)-trans-3-(2-cyano-1-propenyl)-2,2-dimethylcyclopropanecarboxylate represented by the formula:
[drawing 8] (The compound described in JP 2004-2363 A; hereinafter, referred to as the comparative compound 2.).

The test system of experiment [2] is Adult houseflies. Put plainly: Housefly knock-down test, 0.025% oil solution spray in cubic chamber. The note with it: 0.7 ml of 0.025% oil solution sprayed in 70 cm cubic chamber, 2 minutes after spraying. The class given is in vivo. The protocol:
A solution of 0.025 part of the present compound (A) in 10 parts of dichloromethane was mixed with 89.975 parts of deodorized kerosene to obtain a 0.025% oil solution.
Adult houseflies (5 males and 5 females) were left in a cubic chamber (70 cm at each side). Into the chamber, 0.7 ml of 0.025% oil solution of the present compound (A) prepared above was sprayed with a spray gun at a pressure of 8.8×10^4 Pa from a small window on the side of the chamber. Two minutes after spraying, the number of the knocked-down insects was counted (repeated twice).
The same test was carried out except that 4-propargyl-2,3,5,6-tetrafluorobenzyl (1R)-trans-3-(2-methyl-1-propenyl)-2,2-dimethylcyclopropanecarboxylate represented by the formula:
[drawing 7] (The compound described as compound 2 in TABLE 1 of EP 0196156 A1; hereinafter, referred to as the comparative compound 1) was used instead of the present compound (A).
Knock-down ratios, i.e., ratios of the number of knocked-down insects 2 minutes after the spraying to the number of tested insects, are shown in Table 1.

Each structure is given as a SMILES string.

On to `C#CCc1c(F)c(F)c(COC(=O)[C@@H]2[C@@H](C=C(C)C)C2(C)C)c(F)c1F` [Comparative compound 1, 4-propargyl-2,3,5,6-tetrafluorobenzyl (1R)-trans-3-(2-methyl-1-propenyl)-2,2-dimethylcyclopropanecarboxylate], for which the “KT90 (minutes), time required for knocking down 90% of the tested insects” value in the experiment with Adult houseflies [1] was “Not less than 10 minutes”. In the experiment with Adult houseflies [2], the “Knock-down ratio (%)” value was 0%.
In the case of `COCc1c(F)c(F)c(COC(=O)[C@@H]2[C@@H](C=C(C)C#N)C2(C)C)c(F)c1F` [Comparative compound 2, 4-methoxymethyl-2,3,5,6-tetrafluorobenzyl (1R)-trans-3-(2-cyano-1-propenyl)-2,2-dimethylcyclopropanecarboxylate], the “KT90 (minutes), time required for knocking down 90% of the tested insects” value in the experiment on Adult houseflies [1] was 4.3 min.
On to `C#CCc1c(F)c(F)c(COC(=O)[C@@H]2[C@@H](C=C(C)C#N)C2(C)C)c(F)c1F` [Present compound (A), 4-propargyl-2,3,5,6-tetrafluorobenzyl (1R)-trans-3-(2-cyano-1-propenyl)-2,2-dimethylcyclopropanecarboxylate], for which the “KT90 (minutes), time required for knocking down 90% of the tested insects” value in the experiment on Adult houseflies [1] came to 2.0 min. Further, the “Knock-down ratio (%)” value in the experiment with Adult houseflies [2] amounted to 100%.
